# Reference: patent US20070269512A1, “GASTRORETENTIVE SUSTAINED RELEASE FORMULATIONS” (priority 2006, published 2007)
# Assay: Pharmacokinetic study, plasma concentrations by LC-MS/MS
# Set-up: species or system beagle dogs
# Settings: dog, in vivo
# Method: Each overnight-fasted dog in group 1 received an intravenous bolus dose administration (1 mg/kg) of the compound of Formula (I). Following i.v. dose administration, blood samples (˜3 mL) were collected via jugular venipuncture, or other suitable site, into EDTA tubes and placed on wet ice, at predose (0.0), 0.25, 0.5, 1, 2, 4, 8, and 24 hours post dose. Each overnight-fasted dog in groups 2-5 received a single oral dose (200 mg) of compound of Formula (I). Following oral dose administration, blood samples (˜3 mL) were collected via jugular venipuncture, or other suitable site, into EDTA tubes and placed on wet ice, at predose (0.0), 0.25, 0.5, 1, 2, 4, 8, 24, 36, and 48 hours post dose. Plasma was harvested by centrifugation, each plasma sample are split into approximately equal parts before being frozen at −70° C. Food was returned after the 4 hour blood sample is collected. All samples were processed within two hours of collection. All samples are labeled with the study number, test article, dose, time interval, species, and animal identification number.
# One set of plasma samples were analyzed for unchanged compound of Formula (I) concentrations using a liquid chromatographic-triple quadrupole mass spectrometric (LC-MS/MS) assay procedure. Any remaining plasma was retained for possible metabolite profiling. […]
structure (smiles),measurement,value
Cc1cnc(NCC(F)(F)c2ccccc2)c(=O)n1CC(=O)NCCONC(=N)N [Compound X],colonic absorption,very poor colonic absorption
